# According to US9605004B2, “Chemical compounds” (SYNGENTA LIMITED, priority 2013, dated 2017):
# Legend:
# [1] = system: a variety of test species; assay: Post-emergence herbicidal activity (Example 8b, Table 3); type: in vivo; settings: application post-emergence, rate 1000 g/ha, evaluated after 13 days, scale 0-5; for Herbicidal damage score, ABUTH: Abutilon theophrasti; for Herbicidal damage score, ALOMY: Alopecurus myosuroides; for Herbicidal damage score, AMARE: Amaranthus retroflexus; for Herbicidal damage score, ECHCG: Echinochloa crus-galli; for Herbicidal damage score, SETFA: Setaria faberi; for Herbicidal damage score, ZEAMX: Zea mays
# Experimental: (§1) Seeds of a variety of test species were sown in standard soil in pots. After 8 days cultivation (post-emergence) under controlled conditions in a glasshouse (at 24/16° C., day/night; 14 hours light; 65% humidity), the plants were sprayed with an aqueous spray solution derived from the formulation of the technical active ingredient in acetone/water (50:50) solution containing 0.5% Tween 20 (polyoxyethelyene sorbitan monolaurate, CAS RN 9005-64-5). The test plants were then grown in a glasshouse under controlled conditions (at 24/16° C., day/night; 14 hours light; 65% humidity) and watered twice daily. After 13 days, the test was evaluated (5=total damage to plant; 0=no damage to plant).
# [2] = system: a variety of test species; assay: Pre-emergence herbicidal activity (Example 8a, Table 2); type: in vivo; design: key: 0 = no damage to plant, 5 = total damage to plant; settings: application pre-emergence, rate 1000 g/ha, evaluated after 13 days
# Experimental: as §1, with “After” for “After 8 days”, “for one day (pre-emergence)” for “(post-emergence)”
SMILES,"Herbicidal damage score, ABUTH [1]","Herbicidal damage score, ALOMY [1]","Herbicidal damage score, AMARE [1]","Herbicidal damage score, ECHCG [1]","Herbicidal damage score, SETFA [1]","Herbicidal damage score, ZEAMX [1]","Pre-emergence herbicidal activity, damage score ABUTH [2]","Pre-emergence herbicidal activity, damage score ALOMY [2]","Pre-emergence herbicidal activity, damage score AMARE [2]","Pre-emergence herbicidal activity, damage score ECHCG [2]","Pre-emergence herbicidal activity, damage score SETFA [2]","Pre-emergence herbicidal activity, damage score ZEAMX [2]"
CC1=C(Cl)C(=O)N(c2cc(C(C)(C)C)n(C)n2)C1O (centres unmarked) [Compound B2],5,5,5,5,5,5,5,4,5,5,5,2
CC1=C(Cl)C(=O)N(c2cc(C(F)(F)F)n(C)n2)C1O (centres unmarked) [Compound B3],5,5,5,5,5,4,5,4,4,5,4,2
CC1=C(Cl)C(=O)N(c2cc(C(F)(F)C(F)(F)F)n(C)n2)C1O (centres unmarked) [Compound B4],5,5,5,5,5,3,5,4,5,5,5,2
CC1=C(Cl)C(=O)N(c2cc(C(C)C)n(C)n2)C1O (centres unmarked) [Compound B5],5,4,5,5,4,5,5,3,5,5,4,2
"C=CCC(C)(C)c1cc(N2C(=O)C(Cl)=C(C)C2O)nn1C (centres unmarked) [Compound B6, 4-chloro-1-[5-(1,1-dimethylbut-3-enyl)-1-methyl-pyrazol-3-yl]-2-hydroxy-3-methyl-2H-pyrrol-5-one]",5,5,5,5,5,4,5,4,5,4,5,4
"CC(C)=Cc1cc(N2C(=O)C(Cl)=C(C)C2O)nn1C (centres unmarked) [Compound B7, 4-chloro-2-hydroxy-3-methyl-1-[1-methyl-5-(2-methylprop-1-enyl)pyrazol-3-yl]-2H-pyrrol-5-one]",5,4,5,5,5,2,4,2,4,4,4,2
"CC1=C(Cl)C(=O)N(c2cc(I)n(C)n2)C1O (centres unmarked) [Compound B8, 4-chloro-2-hydroxy-1-(5-iodo-1-methyl-pyrazol-3-yl)-3-methyl-2H-pyrrol-5-one]",5,5,5,5,5,4,4,4,5,4,5,3
CC1=C(Cl)C(=O)N(c2cc(Cl)n(C)n2)C1O (centres unmarked) [Compound B9],5,5,5,5,5,5,4,3,5,4,5,2
"CC(C)=CCc1cc(N2C(=O)C(Cl)=C(C)C2O)nn1C (centres unmarked) [Compound B10, 4-chloro-2-hydroxy-3-methyl-1-[1-methyl-5-(3-methylbut-2-enyl)pyrazol-3-yl]-2H-pyrrol-5-one]",3,0,0,2,5,2,0,0,,0,0,0
CC1=C(Cl)C(=O)N(c2cc(/C=C/C(C)(C)C)n(C)n2)C1O (centres unmarked) [Compound B11],5,3,5,5,5,1,2,2,4,4,3,2
CC1=C(Cl)C(=O)N(c2cc(C3=CCC(C)(C)CC3)n(C)n2)C1O (centres unmarked) [Compound B12],1,1,2,1,1,1,4,0,1,0,2,1
CC1=C(Cl)C(=O)N(c2cc(C(F)(F)C(F)(F)F)n(C)n2)C1O (centres unmarked) [Compound B13],5,5,5,5,5,3,5,4,5,5,5,2
CC1=C(Cl)C(=O)N(c2cc(C(C)C)n(C)n2)C1O (centres unmarked) [Compound B14],5,4,5,5,4,5,5,3,5,5,4,2
CC1=C(Cl)C(=O)N(c2ccn(C)n2)C1O (centres unmarked) [Compound B15],4,3,4,4,2,1,4,3,5,4,4,2
